Assay results: patent publication US20230357179A1, “RAF KINASE INHIBITORS AND METHODS OF USE THEREOF” (Deciphera Pharmaceuticals, LLC, priority 2021, published 2023)

Experiments:
Format in all cases: cell-based
[1] = system: A375 cells; assay: A375 cell proliferation assay (1), resazurin, 96-well; settings: Homo sapiens, A-375, inhibition of cell proliferation
Outline: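 Viability was read by resazurin fluorescence at 540 nm excitation and 600 nm emission, using a 440 μM solution added for 5–6 h at the end of culture. IC50 came from the curve fit.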

[2] = system: Miapaca-2 cells; assay: MiaPaca-2 cell proliferation assay (1), resazurin, 96-well; settings: Homo sapiens, MIA PaCa-2, inhibition of cell proliferation
Description: MiaPaca-2 Cell Proliferation Assay (1)
(§1) Miapaca-2 cells (catalog #CRL-1420) are obtained from the American Type Culture Collect (ATTC, Manassas, VA). Briefly, cells were grown in DMEM supplemented with 10% characterized fetal bovine serum (Invitrogen, Carlsbad, CA), 2.5% New Zealand sourced horse serum and 1% Penicillin/Streptomycin/L-Glutamine at 37° C., 5% CO2, and 95% humidity. Cells are expanded until reaching 70-95% confluency at which point they are subcultured or harvested for assay use. A serial dilution of test compound is dispensed into a 96-well black clear bottom plate in triplicate. Three thousand cells are added per well in 200 μL complete growth medium in the 96-well plate. Plates are incubated for 67-72 hours at 37° C., 5% CO2, and 95% humidity. At the end of the incubation, 40 μL of a 440 μM solution of resazurin (Sigma, St. Louis, MO) in PBS is added to each well of the plate and plates are incubated for an additional 5-6 hours at 37° C., 5% CO2, and 95% humidity. Plates are read on a Synergy2 or equivalent reader (Biotek, Winooski VT) using an excitation of 540 nm and an emission of 600 nm. Data is analyzed using Prism software (GraphPad, San Diego, CA) to calculate IC50 values.

[3] = system: H2405 cells; assay: H2405 cell proliferation assay (1), resazurin, 96-well; settings: Homo sapiens, NCI-H2405, inhibition of cell proliferation
Description: H2405 Cell Proliferation Assay (1)
as §1, with “H2405” for “Miapaca-2”, “#CRL-5944)” for “#CRL-1420)”, “RPMI 1640” for “DMEM”, “5%” for “10%”, “CA)” for “CA), 2.5% New Zealand sourced horse serum”

SMILES | IC50 [1] | IC50 [2] | IC50 [3]
Cc1ccc(NC(=O)NCCC(C)(C)C)cc1-c1cc(N2CCOCC2)nc(N2CCOCC2)c1 [Example 4] | 500 to 1000 nM | 1000 to 10000 nM | 100 to 500 nM
COC(=O)Nc1cc(-c2cc(-c3cc(NC(=O)NC[C@H]4CCO4)c(F)cc3C)cc(OCCO)n2)ccn1 [Example 96] | 1000 to 10000 nM | – | 1000 to 10000 nM
COC1(CCNC(=O)Nc2cc(-c3ccnc(-c4ccnc(NC(=O)C5CC5)c4)n3)c(C)cc2F)CC1 [Example 117] | 1000 to 10000 nM | 1000 to 10000 nM | 100 to 500 nM
Cc1ncc(NC(=O)NCCC2(C)CC2)cc1-c1ccnc(-c2ccnc(NC(=O)C3CC3)c2)c1 [Example 118] | 1000 to 10000 nM | 1000 to 10000 nM | 500 to 1000 nM
COC(C)(C)CCNC(=O)Nc1cnc(C)c(-c2cc(-c3ccnc(NC(=O)C4CC4)c3)cnn2)c1 [Example 121] | 1000 to 10000 nM | 1000 to 10000 nM | 1000 to 10000 nM
CNC(=O)c1cc(-c2cnnc(-c3cc(NC(=O)NCCC(C)(C)OC)c(F)cc3C)c2)ccn1 [Example 123] | 1000 to 10000 nM | 1000 to 10000 nM | 1000 to 10000 nM
Cc1ncc(NC(=O)NC2CC(C)(C)C2)cc1-c1cc(OCCO)nc(-c2ccnc(NC(=O)C3CC3)c2)c1 [Example 126] | 100 to 500 nM | – | 500 to 1000 nM
Cc1cc(F)c(NC(=O)NCCC(C)(C)F)cc1-c1ccnc(-c2ccnc(NC(=O)C3CC3)c2)n1 [Example 128] | 1000 to 10000 nM | – | 1000 to 10000 nM
Cc1cc(F)c(NC(=O)NCCC(C)(C)C)cc1-c1cc(-c2ccnc(NC(=O)C3CC3)c2)cnn1 [Example 131] | ≤ 100 nM | 1000 to 10000 nM | 100 to 500 nM
Cc1ncc(NC(=O)NCCC2(C)CC2)cc1-c1cc(OCCO)nc(-c2ccnc(NC(=O)C3CC3)c2)n1 [Example 133] | 500 to 1000 nM | 1000 to 10000 nM | 500 to 1000 nM
Cc1cc(F)c(NC(=O)NCCC2(C)CC2)cc1-c1ccnc(-c2ccnc(NC(=O)C3CC3)c2)c1 [Example 134] | 1000 to 10000 nM | – | 500 to 1000 nM
COC(=O)Nc1cc(-c2nccc(-c3cc(NC(=O)NCCC4(C)CC4)cnc3C)n2)ccn1 [Example 135] | 1000 to 10000 nM | – | 1000 to 10000 nM
Cc1ncc(NC(=O)NCCC(C)(C)F)cc1-c1ccnc(-c2ccnc(NC(=O)C3CC3)c2)n1 [Example 136] | 1000 to 10000 nM | – | 1000 to 10000 nM
COC(=O)Nc1cc(-c2cccc(-c3cc(NC(=O)NCCC4(OC)CC4)cnc3C)c2)ncn1 [Example 138] | 1000 to 10000 nM | – | 1000 to 10000 nM
COC[C@@H]1CCN(C(=O)Nc2cc(-c3cc(-c4ccnc(NC(=O)OC)c4)cnn3)c(C)cc2F)C1 [Example 149] | 1000 to 10000 nM | – | 1000 to 10000 nM
COC[C@H]1CCN(C(=O)Nc2cnc(C)c(-c3cc(OCCO)nc(-c4ccnc(NC(=O)OC)c4)c3)c2)C1 [Example 152] | 1000 to 10000 nM | – | 1000 to 10000 nM
CNC(=O)c1cc(-c2cnnc(-c3cc(NC(=O)NCCC(C)(C)OC)cnc3C)c2)ccn1 [Example 154] | 1000 to 10000 nM | – | 1000 to 10000 nM
COC(=O)Nc1cc(-c2cc(-c3cc(NC(=O)N[C@H]4C[C@](C)(F)C4)cnc3C)cc(OCCO)n2)ccn1 [Example 157] | 1000 to 10000 nM | – | 1000 to 10000 nM
Cc1cc(F)c(NC(=O)NCCC(C)(C)F)cc1-c1ccnc(-c2ccnc(NC(=O)C3CC3)c2)c1 [Example 159] | 1000 to 10000 nM | – | 100 to 500 nM
COC[C@@H]1CCN(C(=O)Nc2cnc(C)c(-c3cc(OCCO)nc(-c4ccnc(NC(=O)OC)c4)c3)c2)C1 [Example 160] | 1000 to 10000 nM | – | 1000 to 10000 nM
COC(C)(C)CCNC(=O)Nc1cc(-c2ccnc(-c3ccnc(NC(=O)C4CC4)c3)c2)c(F)cc1F [Example 162] | 1000 to 10000 nM | – | 1000 to 10000 nM
COC(=O)Nc1cc(-c2cc(-c3cc(NC(=O)NCCC(C)(C)OC)c(F)cc3F)ccn2)ccn1 [Example 163] | 1000 to 10000 nM | – | 1000 to 10000 nM
CNC(=O)c1cc(-c2cc(-c3cc(NC(=O)NCCC4(C)CC4)c(F)cc3C)cc(OCCO)n2)ccn1 [Example 164] | ≤ 100 nM | – | 100 to 500 nM
Cc1cc(F)c(NC(=O)NC2CC(C)(C)C2)cc1-c1cc(OCCO)nc(-c2ccnc(NC(=O)C3CC3)c2)n1 [Example 167] | ≤ 100 nM | – | ≤ 100 nM
Cc1cc(F)c(NC(=O)NCCC2(C)CC2)cc1-c1cnnc(-c2ccnc(NC(=O)C3CC3)c2)c1 [Example 168] | 100 to 500 nM | – | ≤ 100 nM
Cc1ncc(NC(=O)NCCC2(C)CC2)cc1-c1ccnc(-c2ccnc(NC(=O)C3(C#N)CC3)c2)c1 [Example 169] | 1000 to 10000 nM | – | 100 to 500 nM

Second part, the compound after the results:

IC50 [1] | IC50 [2] | IC50 [3] | SMILES
500 to 1000 nM | 1000 to 10000 nM | – | Cc1ccc(NC(=O)Nc2cccc(C(F)(F)F)c2)cc1-c1cc(OCCO)nc(N2CCOCC2)c1 [Example 3, 1-(3-(2-(2-hydroxyethoxy)-6-morpholinopyridin-4-yl)-4-methylphenyl)-3-(3-(trifluoromethyl)phenyl)urea]
500 to 1000 nM | 1000 to 10000 nM | 500 to 1000 nM | COC(=O)Nc1nccc(-c2cc(OCCO)cc(-c3cc(NC(=O)NCCC4(C)CC4)c(F)cc3C)c2)n1 [Example 122]
1000 to 10000 nM | – | 1000 to 10000 nM | CCC(C)CCNC(=O)Nc1cnc(C)c(-c2ccnc(-c3ccnc(NC(=O)C4CC4)c3)c2)c1 (stereo not shown) [Example 124]
1000 to 10000 nM | – | 1000 to 10000 nM | COC(=O)Nc1cc(-c2cc(-c3cc(NC(=O)NCCN4CCC4)c(F)cc3C)cc(OCCO)n2)ccn1 [Example 125]
1000 to 10000 nM | – | 1000 to 10000 nM | Cc1cc(F)c(NC(=O)NCCC(C)(C)F)cc1-c1cccc(-c2cc(NC(=O)C3CC3)ncn2)c1 [Example 127]
1000 to 10000 nM | – | 1000 to 10000 nM | COC(=O)Nc1cc(-c2nccc(-c3cc(NC(=O)NCCC(C)(C)OC)c(F)cc3C)n2)ccn1 [Example 129]
1000 to 10000 nM | – | 1000 to 10000 nM | Cc1ncc(NC(=O)NCCC(C)(C)F)cc1-c1nccc(-c2ccnc(NC(=O)C3CC3)c2)n1 [Example 130]
1000 to 10000 nM | 1000 to 10000 nM | 1000 to 10000 nM | CNC(=O)c1cc(-c2cnnc(-c3cc(NC(=O)NCCC(C)(C)F)c(F)cc3C)c2)ccn1 [Example 132]
1000 to 10000 nM | – | 1000 to 10000 nM | COC1(CCNC(=O)Nc2cnc(C)c(-c3ccnc(-c4ccnc(NC(=O)C5CC5)c4)n3)c2)CC1 [Example 137]
1000 to 10000 nM | 1000 to 10000 nM | 500 to 1000 nM | Cc1cc(F)c(NC(=O)NCCC(C)(C)F)cc1-c1cc(-c2ccnc(NC(=O)C3CC3)c2)cnn1 [Example 139]
1000 to 10000 nM | – | 100 to 500 nM | COC(=O)Nc1cc(-c2cc(-c3cc(NC(=O)NCCC4(C)CC4)cnc3C)cc(OCCO)n2)ccn1 [Example 151]
1000 to 10000 nM | – | 1000 to 10000 nM | COC(=O)Nc1cc(-c2cnnc(-c3cc(NC(=O)NCCC(C)(C)OC)cnc3C)c2)ccn1 [Example 153]
1000 to 10000 nM | – | 1000 to 10000 nM | COC(=O)Nc1cc(-c2cc(-c3cc(NC(=O)NCCC4COC4)c(F)cc3C)cc(OCCO)n2)ccn1 [Example 155]
1000 to 10000 nM | – | 500 to 1000 nM | COC(=O)Nc1cc(-c2cc(-c3cc(NC(=O)N4CCC(C)(C)CC4)cnc3C)cc(OCCO)n2)ccn1 [Example 166]
1000 to 10000 nM | – | 1000 to 10000 nM | COC(=O)Nc1cc(-c2ccnc(-c3cc(NC(=O)NCCC(C)(C)OC)c(F)cc3C)n2)ccn1 [Example 171]
1000 to 10000 nM | – | 1000 to 10000 nM | Cc1ncc(NC(=O)NCCN2CCC2)cc1-c1cc(OCCO)nc(-c2ccnc(NC(=O)C3CC3)c2)c1 [Example 172]
